Assay results as given in PubChem BioAssay (NCI).
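Cultured in 96-well plates, cells were exposed to test compound for 48 hours across five concentrations. GI50 = concentration required for 50% inhibition of growth. TGI is the concentration that stops growth completely.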

Legend:
Assay in all cases: growth of human tumour cells (NCI), 48 h
SNB-75 CNS = tested on: SNB-75 CNS
CAKI-1 renal = tested on: CAKI-1 renal
MDA-MB-435 = tested on: MDA-MB-435
OVCAR-5 ovarian = tested on: OVCAR-5 ovarian
SF-268 CNS = tested on: SF-268 CNS
KM12 colon = tested on: KM12 colon
MOLT-4 leukemia = tested on: MOLT-4 leukemia
SK-MEL-28 melanoma = tested on: SK-MEL-28 melanoma
HOP-62 NSCLC = tested on: HOP-62 NSCLC
UO-31 renal = tested on: UO-31 renal

| Compound | TGI (SNB-75 CNS) [µM] | TGI (CAKI-1 renal) [µM] | TGI (MDA-MB-435) [µM] | TGI (OVCAR-5 ovarian) [µM] | TGI (SF-268 CNS) [µM] | TGI (KM12 colon) [µM] | TGI (MOLT-4 leukemia) [µM] | TGI (SK-MEL-28 melanoma) [µM] | TGI (HOP-62 NSCLC) [µM] | TGI (UO-31 renal) [µM] | GI50 (SNB-75 CNS) [µM] | GI50 (CAKI-1 renal) [µM] | GI50 (OVCAR-5 ovarian) [µM] | GI50 (SF-268 CNS) [µM] | GI50 (KM12 colon) [µM] | GI50 (MOLT-4 leukemia) [µM] | GI50 (SK-MEL-28 melanoma) [µM] | GI50 (HOP-62 NSCLC) [µM] | GI50 (UO-31 renal) [µM] | GI50 (MDA-MB-435) [µM] |
| --- | --- | --- | --- | --- | --- | --- | --- | --- | --- | --- | --- | --- | --- | --- | --- | --- | --- | --- | --- | --- |
| C=C1C(=O)OC2/C=C(/C)C(OC(C)=O)CC(O)/C(C)=C\C(OC(=O)/C(C)=C\C)C12 (stereo not drawn) | > 100 | 86.4 | > 100 | > 100 | > 100 | > 100 | > 100 | > 100 | > 100 |  |  |  |  |  |  |  |  |  |  |  |
| CCc1cccc(C)c1NC(=O)C(=O)Cc1nc2ccccc2s1 | > 100 | > 100 |  |  | > 100 | > 100 | > 100 | > 100 |  | > 100 |  |  |  |  |  |  |  |  |  |  |
| COc1ccc(C(=O)c2cc3c(N)c(C(=O)Nc4cccc5ccccc45)sc3nc2C)cc1 | > 50 | > 50 |  | > 50 | > 50 | > 50 | > 50 | > 50 | > 50 | > 50 | 0.137 | 0.243 | 0.285 | 0.529 | 0.215 | 0.308 | > 50 | 0.314 | 0.422 |  |
| Nc1[nH]nc2nc(-c3cccs3)cc(C(F)(F)F)c12 | > 25 | > 25 | > 25 | > 25 | > 25 | > 25 |  | > 25 | > 25 | > 25 | > 25 | > 20.3 | > 25 | > 25 | 12 |  | > 25 | > 25 | > 25 | > 25 |
| COc1ccc(OC)c(NC(=O)CCC/C(CC(=O)c2ccc(O)c(OC)c2)=N\Nc2ccc([N+](=O)[O-])cc2)c1 | 79 | > 100 |  | > 100 | > 100 | > 100 | > 100 |  | > 100 | > 100 |  |  |  |  |  |  |  |  |  |  |
| O=S1(=O)OCCOS(=O)(=O)C1Cc1ccccc1 | > 100 | > 100 |  | > 100 | > 100 | > 100 | > 100 | > 100 | > 100 | > 100 |  |  |  |  |  |  |  |  |  |  |
| Cc1ccc(Nc2nc(C)c(C(/C=C/c3ccc(/C=C/C(=N/NC(=O)C[n+]4ccccc4)c4sc(Nc5ccc(C)cc5[N+](=O)[O-])nc4C)cc3)=N\NC(=O)C[n+]3ccccc3)s2)c([N+](=O)[O-])c1 | > 100 | > 100 |  | > 100 | > 100 | > 100 | > 100 | > 100 | > 100 | > 100 |  |  |  |  |  |  |  |  |  |  |
| CN(C(=O)c1ccco1)C(=S)N1CCN(c2ccccc2)CC1 | > 100 | > 100 |  | > 100 | > 100 | > 100 | > 100 | > 100 | > 100 | > 100 |  |  |  |  |  |  |  |  |  |  |
| CC1=C(CO)C(=O)O[C@@H]([C@@H](C)[C@H]2CC[C@H]3[C@@H]4C[C@@H](O)[C@@]5(O)CC=CC(=O)[C@]5(C)[C@H]4CC[C@]23C)C1 | > 100 | > 100 | > 100 | > 100 | > 100 | 58.8 | > 100 | > 100 | > 100 |  |  |  |  |  |  |  |  |  |  |  |
| O=C1CC(S(=O)(=O)O)C=C1Nc1cccc(Cl)c1 (stereo not drawn) | > 100 | > 100 |  | > 100 | > 100 | > 100 | > 100 | > 100 | > 100 | > 100 |  |  |  |  |  |  |  |  |  |  |
| NC(=O)c1c(NC(=O)c2ccc3c(c2)OCO3)sc2c1CCC(=O)C2 | 6.5 |  | > 100 |  | > 100 |  |  | > 100 | > 100 |  | 2.13 |  |  | 1.88 |  |  | 3 | 4.11 |  | 3.16 |
| C=C1C(=O)OC2C1C(OC(=O)/C(C)=C/C)CC(O)(CCl)C1C(O)C3OC3(C)C21O (stereo not drawn) | > 50 | > 50 | > 50 | > 50 | > 50 | > 50 | > 50 | > 50 | > 50 |  |  |  |  |  |  |  |  |  |  |  |
| N#CC(c1nc2ccccc2nc1Cl)S(=O)(=O)c1ccccc1 (stereo not drawn) | > 100 | > 100 |  | > 100 | > 100 | > 100 | > 100 | > 100 | > 100 | > 100 |  |  |  |  |  |  |  |  |  |  |
| COC(=O)C1=C(c2cc(OC)c(OC)c(OC)c2)OC(c2ccc(OC)c(OC)c2)C1 (stereo not drawn) | > 100 | > 100 |  | > 100 | > 100 | > 100 | 51.2 | > 100 | > 100 | > 100 |  |  |  |  |  |  |  |  |  |  |
| COc1ccc2c(c1)C(=O)c1c-2c(N(C)C)nc2ccccc12 | > 100 |  |  | > 100 | > 100 | > 100 | > 100 | > 100 | > 100 | > 100 | 57.6 |  | > 100 | 77.8 | > 100 | > 100 | > 100 | > 100 | > 100 |  |
| C/C(CC(=O)Nc1ccc(Cl)cc1)=N\NC(N)=S | > 100 |  |  | > 100 | > 100 | > 100 | > 100 | > 100 | > 100 |  |  |  |  |  |  |  |  |  |  |  |
| O=C(COc1ccc(/C=C2\Oc3ccccc3C2=O)cc1)Nc1nc2c(s1)CCCC2 | 0.609 | 8.28 | > 100 | > 100 |  | 27.5 |  | > 68.7 | 97.9 | > 49.5 | 0.221 | 0.801 | 51.2 |  | 0.403 |  | 27.8 | 22.5 | 1.87 | 3.98 |
| COc1cc(C2C(Cl)C(=O)N2NC(=O)c2ccc(N)cc2)ccc1O (stereo not drawn) | > 100 | 78.9 |  | > 100 |  | > 100 | 60.3 | > 100 | > 100 | > 100 |  |  |  |  |  |  |  |  |  |  |
| Cc1cc(Cl)ccc1NC(=O)CC/C(CC(=O)C(C)C)=N\NC(=O)C[n+]1ccccc1 | > 100 | > 100 |  | > 100 | > 100 | > 100 | > 100 | > 100 | > 100 | > 100 |  |  |  |  |  |  |  |  |  |  |
